ChEMBL document CHEMBL5625204, “Synthesis and pharmacodynamic evaluation of naphthalene derivatives against influenza A virus in vitro and in vivo” (Eur J Med Chem, 2023)
Activity calls are given as the source filed them. The rule behind the calls is not given here.

Legend:
[1] = Cytotoxicity against dog MDCK cells assessed as reduction in cell viability incubated for 72 hrs by MTT assay; format: toxicity, cell-based, Canis lupus familiaris
Influenza A virus [2] = assay: Antiviral activity against Influenza A virus H1N1 (A/Weiss/43) infected in MDCK cells assessed as reduction of viral replication at 0.625 to 100 uM incubated for 72 hrs by TCID50 method; format: functional, organism-based; details: dose 0.625-100 µM
Influenza A virus [3] = assay: Antiviral activity against Influenza A virus H1N1 (A/Weiss/43) infected in MDCK cells assessed as reduction of viral replication treated for 72 hrs after viral adsorption by TCID50 method; format: functional, organism-based
[4] = Selectivity index, ratio of CC50 for dog MDCK cells to EC50 for antiviral activity against Influenza A virus H1N1 (A/Weiss/43) infected in MDCK cells treated for 72 hrs after viral adsorption; format: toxicity, cell-based; details: read-out: Ratio CC50/EC50
Influenza A virus [5] = assay: Antiviral activity against Influenza A virus H1N1 (A/Weiss/43)-infected in BALB/c mouse assessed as reduction in pulmonary inflammation at 50 mg/kg/day administered intranasally for 6 days starting from 3 hrs post-viral infection by Hematoxylin-Eosin staining based analysis; format: functional, organism-based; details: route nas, time 6.0 day
Influenza A virus [6] = assay: Antiviral activity against Influenza A virus H3N2 (A/California/2004) infected in MDCK cells assessed as reduction of viral replication incubated for 72 hrs by TCID50 method; format: functional, organism-based
Influenza A virus [7] = assay: Antiviral activity against Influenza A virus H1N1 (A/Weiss/43)-infected in BALB/c mouse assessed as reduction in lung index at 50 mg/kg/day administered intranasally for 6 days starting from 3 hrs post-viral infection; format: functional; details: 144 h, route nas, time 6 day
[8] = Selectivity index, ratio of CC50 for dog MDCK cells to EC50 for antiviral activity against Influenza A virus H1N1 (A/Virginia/ATCC2/2009) infected in MDCK cells; format: toxicity, cell-based; details: read-out: Ratio CC50/EC50
Influenza A virus [9] = assay: Inhibition of Influenza A virus Neuraminidase at 100 to 300 uM pretreated with enzyme for 5 mins followed by fluorogenic substrate addition and measured for 1 hr by fluorescence based analysis; details: dose 100-300 µM, time 65.0 min
Influenza A virus [10] = assay: Antiviral activity against Influenza A virus H1N1 (A/Virginia/ATCC2/2009) infected in MDCK cells assessed as reduction of viral replication incubated for 72 hrs by TCID50 method; format: functional, organism-based
[11] = Selectivity index, ratio of CC50 for dog MDCK cells to EC50 for antiviral activity against Influenza A virus H3N2 (A/California/2004) infected in MDCK cells; format: toxicity, cell-based; details: read-out: Ratio CC50/EC50
Influenza A virus [12] = assay: Antiviral activity against Influenza A virus H1N1 infected in dog MDCK cells assessed as decrease in apoptosis by measuring proportion of viable cells at 50 uM measured after 72 hrs by AnnexinV-FITC/PI staining based flow cytometry (reference value: 62.9%); format: functional
Influenza A virus [13] = assay: Antiviral activity against Influenza A virus H1N1 infected in dog MDCK cells assessed as decrease in apoptosis by measuring proportion of late apoptotic cells at 50 uM measured after 72 hrs by AnnexinV-FITC/PI staining based flow cytometry (reference value: 10.3%); format: functional; design: scale not given: the % may be the effect or the level left
Influenza A virus [14] = assay: Antiviral activity against Influenza A virus H1N1 infected in dog MDCK cells assessed as decrease in apoptosis by measuring proportion of early apoptotic cells at 50 uM measured after 72 hrs by AnnexinV-FITC/PI staining based flow cytometry (reference value: 24.3%); format: functional; design: scale not given: the % may be the effect or the level left
Influenza A virus [15] = assay: (§1) Antiviral activity against Influenza A virus H1N1 (A/Weiss/43)-infected in dog MDCK cells assessed as reduction in oxidative stress by measuring proportion of cells with excessive ROS accumulation at 50 uM treated at 2 hrs post-infection and measured after 36 hrs by DCFH-DA staining based flow cytometry (reference value: 30.6%); format: functional; design: scale not given: the % may be the effect or the level left
Influenza A virus [16] = assay: Antiviral activity against Influenza A virus H1N1 infected in dog MDCK cells assessed as decrease in apoptosis by measuring proportion of necrotic cells at 50 uM measured after 72 hrs by AnnexinV-FITC/PI staining based flow cytometry (reference value: 2.47%); format: functional; design: scale not given: the % may be the effect or the level left
Influenza A virus [17] = assay: as §1, with “of normal” for “of”, “cells” for “cells with excessive ROS accumulation”, “69.4%)” for “30.6%)”; format: functional; design: scale not given: the % may be the effect or the level left

| Structure (SMILES) | CC50 at 72 h [1] [µM] | Activity (Influenza A virus [2]) | other results |
| --- | --- | --- | --- |
| C=CCN(C1=CCCc2ccccc21)S(=O)(=O)c1ccc(C)cc1 | 127 | inactive |  |
| Cc1ccc(S(=O)(=O)N(Cc2ccccc2)c2cc3ccccc3c3ccc4ccccc4c23)cc1 | > 800 | inactive |  |
| O=S(=O)(c1ccc(Cl)cc1)N(Cc1ccccc1)c1cccc2ccccc12 | > 800 | inactive |  |
| COc1ccc(S(=O)(=O)N(Cc2ccccc2)c2cc3ccccc3c3ccccc23)cc1 | 288 | inactive |  |
| Cc1ccc(S(=O)(=O)N(c2ccccc2)c2cc3ccccc3c3ccccc23)cc1 | > 800 | inactive |  |
| Cc1ccc(S(=O)(=O)N(C)c2cc3ccccc3c3ccccc23)cc1 | 3120 | inactive |  |
| Cc1ccc(S(=O)(=O)N(C2=CCCc3ccccc32)c2ccccc2)cc1 | 1210 | inactive |  |
| Cc1ccc(S(=O)(=O)N(Cc2ccccc2)C2=CCOc3ccccc32)cc1 | 1270 |  | EC50 (Influenza A virus [3]): 76.6 µM; selectivity ratio at 72 h [4]: 16.6 |
| CCCCN(C1=CCCc2ccccc21)S(=O)(=O)c1ccc(C)cc1 | 1170 |  | EC50 (Influenza A virus [3]): 39.8 µM; selectivity ratio at 72 h [4]: 29.3 |
| Cc1ccc(S(=O)(=O)N(Cc2ccccc2)c2cc3ccccc3c3ccccc23)cc1 | > 800 | inactive |  |
| Cc1ccc(S(=O)(=O)N(c2ccccc2)c2cccc3ccccc23)cc1 | 1160 | inactive |  |
| O=C1OCCN1c1cc2ccccc2c2ccccc12 | 212 | inactive |  |
| O=[N+]([O-])c1ccc(S(=O)(=O)N(Cc2ccccc2)c2cc3ccccc3c3ccccc23)cc1 | 726 | inactive |  |
| Cc1ccc(S(=O)(=O)N(Cc2ccccc2)c2cc3ccccc3c3ccc(Cl)cc23)cc1 | > 800 | inactive |  |
| Cc1ccc(S(=O)(=O)N(Cc2ccccc2)c2cc3ccccc3c3ccc(F)cc23)cc1 | 1040 | inactive |  |
| Cc1ccc(S(=O)(=O)N(Cc2ccccc2)c2cc3ccc(C)cc3c3ccccc23)cc1 | > 800 | inactive |  |
| O=C1OCCN1C1=CCCc2ccccc21 | 301 | inactive |  |
| Cc1ccc(S(=O)(=O)Nc2cc3ccccc3c3ccc(-c4ccccc4)cc23)cc1 | > 800 | inactive |  |
| Cc1ccc(S(=O)(=O)Nc2cc3ccccc3c3cc(C)ccc23)cc1 | 227 | inactive |  |
| CCOC(=O)C1=C[C@@H](OC(CC)CC)[C@H](NC(C)=O)[C@@H](N)C1 [OSELTAMIVIR] | > 800 |  | Activity (Influenza A virus [5]): Active; EC50 (Influenza A virus [6]): 5.9 µM; inhibition in vivo at 50 mg/kg/day (Influenza A virus [7]): 33.1%; selectivity ratio [8]: > 468; inhibition (Influenza A virus [9]): Active; EC50 (Influenza A virus [10]): 1.71 µM; EC50 (Influenza A virus [3]): 1.7 µM; selectivity ratio at 72 h [4]: > 471; selectivity ratio [11]: > 136 |
| O=S(=O)(c1ccc(Cl)cc1)N(Cc1ccccc1)C1=CCCc2ccccc21 | > 800 | inactive |  |
| CS(=O)(=O)N(C1=CCCc2ccccc21)c1ccccc1 | 345 |  | EC50 (Influenza A virus [3]): 50.8 µM; selectivity ratio at 72 h [4]: 6.78 |
| CS(=O)(=O)N(Cc1ccccc1)c1cc2ccccc2c2ccccc12 | > 800 | inactive |  |

| Structure (SMILES) | CC50 at 72 h [1] [µM] | Activity (Influenza A virus [2]) | other results |
| --- | --- | --- | --- |
| O=C1OCCN1c1cccc2ccccc12 | > 800 | inactive |  |
| CC(=O)c1ccc2c(c1)c(N(Cc1ccccc1)S(=O)(=O)c1ccc(C)cc1)cc1ccccc12 | 382 | inactive |  |
| Cc1ccc(S(=O)(=O)N(Cc2ccccc2)c2cc3ccccc3c3cc(Cl)ccc23)cc1 | 2330 | inactive |  |
| O=S(=O)(c1ccc(Cl)cc1)N(Cc1ccccc1)c1cc2ccccc2c2ccccc12 | > 800 |  | EC50 (Influenza A virus [3]): 30.1 µM; selectivity ratio at 72 h [4]: > 26.7 |
| COc1ccc(S(=O)(=O)N(Cc2ccccc2)C2=CCCc3ccccc32)cc1 | > 800 | inactive |  |
| Cc1ccc(S(=O)(=O)N(Cc2ccccc2)c2cc3ccccc3c3ccc4ccsc4c23)cc1 | 1420 | inactive |  |
| C=CCN(c1cccc2ccccc12)S(=O)(=O)c1ccc(C)cc1 | 620 | inactive |  |
| Cc1ccc(S(=O)(=O)N(Cc2ccccc2)c2cc3ccccc3c3ccc(C)cc23)cc1 | > 800 |  | EC50 (Influenza A virus [3]): 36.4 µM; selectivity ratio at 72 h [4]: > 22 |
| COc1ccc(S(=O)(=O)N(Cc2ccccc2)c2cccc3ccccc23)cc1 | > 800 | inactive |  |
| Cc1ccc(S(=O)(=O)N(C)c2cccc3ccccc23)cc1 | > 800 | inactive |  |
| CCCCN(c1cccc2ccccc12)S(=O)(=O)c1ccc(C)cc1 | 311 | inactive |  |
| NC(=O)c1ncn([C@@H]2O[C@H](CO)[C@@H](O)[C@H]2O)n1 [RIBAVIRIN] | 707 |  | Activity (Influenza A virus [5]): Active; Activity (Influenza A virus [12]): 93.2%; EC50 (Influenza A virus [6]): 24.8 µM; inhibition in vivo at 50 mg/kg/day (Influenza A virus [7]): 40%; Activity (Influenza A virus [13]): 2.43%; Activity (Influenza A virus [14]): 2.76%; selectivity ratio [8]: 38.3; EC50 (Influenza A virus [10]): 18.5 µM; Activity (Influenza A virus [15]): 7.48%; EC50 (Influenza A virus [3]): 13 µM; selectivity ratio at 72 h [4]: 54.4; selectivity ratio [11]: 28.5; Activity (Influenza A virus [16]): 1.56%; Activity (Influenza A virus [17]): 92.5% |
| Cc1ccc(S(=O)(=O)N(Cc2ccccc2)C2=CCCc3ccccc32)cc1 | 1170 | inactive |  |
| Cc1ccc(S(=O)(=O)N(Cc2ccccc2)c2cc3ccccc3c3ccc(-c4ccccc4)cc23)cc1 | > 800 | inactive |  |
| Cc1ccc(S(=O)(=O)N(Cc2ccccc2)c2cc3ccccc3c3cc(C)ccc23)cc1 | > 800 | inactive |  |
| COc1ccc2c(c1)c(NS(=O)(=O)c1ccc(C)cc1)cc1ccccc12 | > 800 |  | EC50 (Influenza A virus [3]): 69.5 µM; selectivity ratio at 72 h [4]: > 11.5 |
| COc1ccc2c(c1)c(N(Cc1ccccc1)S(=O)(=O)c1ccc(C)cc1)cc1ccccc12 | > 800 |  | EC50 (Influenza A virus [3]): 21.8 µM; selectivity ratio at 72 h [4]: > 36.8 |
| CS(=O)(=O)Nc1cc2ccccc2c2ccccc12 | 73.4 | inactive |  |
| COC(=O)c1ccc2c(c1)c(N(Cc1ccccc1)S(=O)(=O)c1ccc(C)cc1)cc1ccccc12 | 3670 | inactive |  |
| Cc1ccc(S(=O)(=O)N(Cc2ccccc2)c2cccc3ccccc23)cc1 | 1370 | inactive |  |
| O=[N+]([O-])c1ccc(S(=O)(=O)N(Cc2ccccc2)C2=CCCc3ccccc32)cc1 | > 800 | inactive |  |
| C=CCN(c1cc2ccccc2c2ccccc12)S(=O)(=O)c1ccc(C)cc1 | 61.2 | inactive |  |
